Measured values taken from patent US20020010128A1, “Treatment of hyperproliferative, inflammatory and related mucocutaneous disorders using inhibitors of mevalonate synthesis and metabolism” (priority 2000, published 2002).

How the values were obtained:
Murine thymic T cells = assay: Murine thymic T cell proliferation (ConA stimulation, MTT assay); format: cell-based; settings: for effect of mevalonate on inhibition of T cell proliferation: presence of 1 mM mevalonate; for inhibition of T cell proliferation: murine thymic T cells, different concentrations
Protocol: Murine thymic T cells were stimulated with Concanavalin A and incubated for 72 hr, and proliferation was then assessed by measuring viable cell number using the MTT assay (OD 570 nm proportional to viable cell number). Different concentrations of mevastatin and oxysterol alone (CP compounds; Panel A) or oxysterol combined with lanolin (Panel B) were added to the cells 1 hr following ConA treatment (FIG. 2).
T cells were incubated with different concentrations of mevastatin (CP 115) alone or in the presence of 1 mM mevalonate (MA). The inhibition of T cell proliferation by mevastatin was prevented by addition of mevalonic acid, the product of the HMG-CoA reductase reaction (FIG. 3).
Murine thymic T cells were incubated with different concentrations of 25-hydroxycholesterol (CP 105; Panel A) or an oxysterol combined with lanolin (C-010; Panel B) in the absence or presence of 1 mM mevalonate (MA).
To further test this synergistic effect, T cells were incubated with different concentrations of mevastatin alone or in combination with 0.25 μg/ml 25-hydroxycholesterol (CP 105; FIG. 5, Panel A) or 10 μg/ml of an oxysterol combined with lanolin (C-010; FIG. 5, Panel B). The data was expressed as percent of control proliferation. CP 105 and C-010 inhibited T cell proliferation 14% and 28% at the indicated concentrations, respectively. Thus minimally effective concentrations of 25-hydroxycholesterol and C-0010-010 decreased the IC50 of mevastatin by a factor greater than 10-fold (FIG. 5). This experiment confirmed that the inhibition of T cell proliferation by mevastatin is advantageously potentiated by oxysterols.
Murine thymic T cells were incubated with different concentrations of an inhibitor of geranylgeranyl transferase (GGTI).

NFAT = assay: NFAT-regulated reporter gene in transiently transfected Jurkat cells; format: cell-based, human; settings: for NFAT activity induced by ionomycin and dominant active ras / NFAT activity stimulated by PMA and dominant active calcineurin: Jurkat cells
Text: The effects of lovastatin on NFAT activation and IL-2 gene expression were investigated in Jurkat T cells (human leukemia T cells). Lovastatin inhibited the expression of an NFAT-regulated reporter gene in transiently transfected Jurkat cells stimulated with ionomycin and PMA or with thapsigargin + PMA.
NFAT is synergistically activated by the Ca^2+/calcineurin and PKC/ras/MAPK pathways. To gain further insight into the novel mechanism of action of lovastatin, dominant active forms of calcineurin and ras were expressed in Jurkat cells to bypass early signaling events mediated by ionomycin (i.e., Ca^2+) and PMA (i.e., PKC).

human IL-2 promoter = assay: Human IL-2 promoter activation in Jurkat cells; format: cell-based
Text: (§1) The effects of lovastatin on NFAT activation and IL-2 gene expression were investigated in Jurkat T cells (human leukemia T cells).

[1] = test system: RSV-driven control reporter gene; assay: RSV-driven control reporter gene in Jurkat cells; format: cell-based, human
Text: as §1

IL-2 mRNA = IL-2 mRNA accumulation in stimulated Jurkat cells; format: cell-based, human; settings: Jurkat cells stimulated with ionomycin and PMA
Text: (§2) Since NFAT plays a critical role in IL-2 gene transcription, the effects of lovastatin on IL-2 mRNA levels and IL-2 secretion from stimulated lymphoid cells were investigated.

IL-2 = IL-2 secretion from stimulated Jurkat cells; format: cell-based, human
Text: as §2

TNF-α = assay: TNF-alpha secretion from stimulated Jurkat cells; format: cell-based, human; settings: ionomycin and PMA-stimulated Jurkat cells
[2] = test system: RBL-2H3 mucosal mast cell line; assay: 3H-serotonin release (degranulation) from RBL-2H3 mast cells; format: cell-based
Text: The RBL-2H3 mucosal mast cell line has been used extensively to study stimulus secretion coupling. Treatment with a calcium ionophore or antigenic crosslinking of the high affinity receptor for IgE on these cells leads to degranulation and the secretion of various proinflammatory mediators, including biogenic amines such as histamine and serotonin.

[3] = test system: DNFB-induced contact hypersensitivity in mice; assay: DNFB-induced contact hypersensitivity in mice (ear swelling); format: in vivo, mouse; settings: 1% topical, applied 30 minutes or one hour after challenge, 48 hours post-challenge
Protocol: The protocol involved shaving the posterior portion of the backs of anesthetized 7-8 week old female Balb/c mice with electric clippers. […] The concentration of DNCB in the sensitizing solution ranged from 0.5% to 4% w/v or 0.1 to 0.5% for DNFB. […] Post challenge ear thickness measurements were taken at 8, 16, 24, 32, 48, 56 and 72 hours. […] However, a swelling response of at least 50% above baseline was considered reasonable.
(§3) The percent suppression for each formulation was determined at 48 hours post-challenge.

[4] = test system: oxazolone-induced contact hypersensitivity in mice; assay: Oxazolone-induced contact hypersensitivity in mice; format: in vivo, mouse; settings: topical sensitizer oxazolone instead of DNFB
Protocol: Challenging mouse ears with haptens, such as 1-chloro-2,4-dinitrobenzene (DNCB), 2,4-dinitrofluorobenzene (DNFB), or oxazolone after a 5 day sensitization phase, induced severe swelling associated with an immune response that included a memory T cell infiltrate. Maximum swelling occurred between 24 and 48 hours after challenge. Thus, DNFB, DCNB and oxazolone were considered to induce delayed contact hypersensitivity.
The protocol involved shaving the posterior portion of the backs of anesthetized 7-8 week old female Balb/c mice with electric clippers. DNCB in acetone:olive oil (4:1), DNFB in acetone alone or oxazolone (15% oxazolone in 97% acetone/3% DMSO) was applied to the shaved area in a volume of 50 μl (DNCB), 100 μl (DNFB), or 20 μl (oxazolone). The concentration of DNCB in the sensitizing solution ranged from 0.5% to 4% w/v or 0.1 to 0.5% for DNFB. Five days after sensitization, the thickness of both ears was measured with a spring-loaded micrometer and both surfaces of the ears were challenged with either 10 μl of DNCB in acetone:olive oil ranging in concentration from 0.25%-2.5% w/v, 10 μl of DNFB in acetone at 0.1%, 10 μl 2% oxazolone in 97% acetone/3% DMSO, or vehicle alone. Post challenge ear thickness measurements were taken at 8, 16, 24, 32, 48, 56 and 72 hours. […]
as §3

Asthma patients = assay: Treatment of asthma patients with aerosolized lovastatin; format: in vivo, human; settings: aerosolized form or nasal inhaler
[5] = test system: TPA-induced ear swelling in mice; assay: TPA-induced ear swelling, mouse acute irritant dermatitis model; format: in vivo
Protocol: Mevastatin was tested topically at 0.5% with several oxysterols known to downregulate HMG-CoA reductase expression, including 25-hydroxycholesterol, in the mouse acute irritant dermatitis model. TPA was applied topically to the ears of mice and the resultant swelling response was measured 24 hr later. Compounds or vehicle alone were topically applied to ears 1 and 6 hr following TPA treatment. The data was expressed as a percent inhibition of the swelling response in the presence of compounds as compared to ears treated with vehicle only.
The phorbol ester 12-0-tetradecanoyl-13-phorbol acetate (TPA) is the active ingredient in […]. TPA induced skin inflammation peaked between 24 and 30 hours when the ear was the target and between 8 and 16 hours when the flank was the target. These two alternative targets allowed to determine both the short and the longer term activity of different compounds in suppressing TPA-induced inflammation. […]
The model systems described in Example 9 were employed, using TPA challenge as a model for acute inflammation. […] The percent suppression for each formulation was determined as described in Example 9 at 30 hours post-challenge (for TPA). Results are reported as the percent suppression of inflammation compared to untreated controls, as measured by ear thickness.

C[C@H](CCCC(C)(C)O)[C@H]1CC[C@H]2[C@@H]3CC=C4C[C@@H](O)CC[C@]4(C)[C@H]3CC[C@]12C [25-hydroxycholesterol]
inhibition at 0.25 µg/mL (Murine thymic T cells; Mus musculus, T-cell, 0.25 μg/ml): 14%
effect of mevalonate on inhibition of T cell proliferation (Murine thymic T cells): not prevented by mevalonic acid

COC(=O)[C@H](CC(C)C)NC(=O)c1ccc(NC[C@@H](N)CS)cc1-c1ccccc1 [GGTI-286]
inhibition of T cell proliferation (Murine thymic T cells): Dose-dependent inhibition

CN(C)CCCn1cc(C2=C(c3c[nH]c4ccccc34)C(=O)NC2=O)c2ccccc21 [Gö6850]
NFAT activity induced by ionomycin and dominant active ras (NFAT): inactive
NFAT activity stimulated by PMA and dominant active calcineurin (NFAT): inhibited

CC[C@H](C)C(=O)O[C@H]1C[C@@H](C)C=C2C=C[C@H](C)[C@H](CC[C@@H]3C[C@@H](O)CC(=O)O3)[C@H]21 [lovastatin]
NFAT activity induced by ionomycin and dominant active ras (NFAT): strongly inhibited
NFAT activity stimulated by PMA and dominant active calcineurin (NFAT): relatively insensitive
expression of NFAT-regulated reporter gene (NFAT; Jurkat cells stimulated with ionomycin and PMA or thapsigargin + PMA): inhibited
effect of mevalonic acid on inhibition of NFAT reporter activity (NFAT; preincubation of Jurkat cells with mevalonic acid): did not reverse
IC50 (NFAT; stated as similar to the IL-2 secretion IC50, read-out: IC50, inhibition of NFAT-dependent reporter activity): ~12 µM
activation of the human IL-2 promoter (human IL-2 promoter): inhibited activation
transcription from RSV-driven control reporter gene [1]: did not affect
IL-2 mRNA accumulation (IL-2 mRNA): inhibited
IC50 (IL-2; Jurkat cells stimulated with ionomycin and PMA, read-out: IC50, inhibition of IL-2 secretion): 12 µM
effect of mevalonic acid on inhibition of IL-2 secretion (IL-2; addition of mevalonic acid): not reversed
TNF-α secretion (TNF-α): inhibit
release of 3H-serotonin ([2]; RBL-2H3 cells stimulated with antigen or calcium ionophore, dose-dependent): inhibited
effect of mevalonic acid on inhibition of 3H-serotonin release ([2]; co-incubation with mevalonic acid): not reversed
suppression of DNFB-induced delayed contact hypersensitivity (ear swelling) [3]: reduced delayed contact hypersensitivity
suppression of oxazolone-induced contact hypersensitivity [4]: dose-dependent
relief of lung constriction and inflammation in asthma patients (Asthma patients): more effective relief of lung constriction and inflammation

CC[C@H](C)C(=O)O[C@H]1CCC=C2C=C[C@H](C)[C@H](CC[C@@H]3C[C@@H](O)CC(=O)O3)[C@H]21 [mevastatin]
percent suppression of TPA-induced acute inflammation, measured by ear thickness ([5]; 0.5% in ethanol/cyclohexane (1:1), applied 30 minutes or one hour after challenge, 30 hours post-challenge): 58%
inhibition of TPA-induced ear swelling ([5]; 0.5% topical, applied 1 and 6 hr after TPA, swelling measured 24 hr later): significantly inhibited
inhibition of T cell proliferation (Murine thymic T cells): potently inhibit
effect of mevalonate on inhibition of T cell proliferation (Murine thymic T cells): reversed by mevalonate
